Experiments:
[1] = molecular target: IRAK4 (Homo sapiens (Human), UniProt Q9NWZ3); assay: IRAK4 Inhibition Assay; type: biochemical; conditions: ATP 500 μM; IRAK4 0.6 nM
In short: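 Mobility-shift kinase assay: 0.6 nM IRAK4, 500 μM ATP, 1.5 μM fluorescent peptide, 60 min, room temperature. Percent inhibition was normalised between enzyme-free and DMSO-only wells.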

[2] = tested on: Caco-2 cells; assay: Caco Permeability Assay; type: in vitro ADME; conditions: Caco-2 cells, 3 μM compound
[3] = tested on: IL-6 levels in human whole blood stimulated with a TLR2 agonist; assay: IRAK4 Whole Blood Assay (lipoteichoic acid/TLR2-stimulated IL-6); type: cell-based; conditions: lipoteichoic acid 10 μg/mL, IL-6 readout
In short: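 IL-6 was quantified by cytometric bead assay in supernatants of human blood (ACD-A) stimulated for 5 h with lipoteichoic acid at 10 μg/mL final. Compound exposure preceded stimulation for 60 min at 37 °C, 5% CO2.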

[4] = Caco Permeability Assay; type: in vitro ADME; conditions: human, Caco-2, Caco-2 cells, 3 μM compound

IRAK4, sequence (Q9NWZ3 whole entry): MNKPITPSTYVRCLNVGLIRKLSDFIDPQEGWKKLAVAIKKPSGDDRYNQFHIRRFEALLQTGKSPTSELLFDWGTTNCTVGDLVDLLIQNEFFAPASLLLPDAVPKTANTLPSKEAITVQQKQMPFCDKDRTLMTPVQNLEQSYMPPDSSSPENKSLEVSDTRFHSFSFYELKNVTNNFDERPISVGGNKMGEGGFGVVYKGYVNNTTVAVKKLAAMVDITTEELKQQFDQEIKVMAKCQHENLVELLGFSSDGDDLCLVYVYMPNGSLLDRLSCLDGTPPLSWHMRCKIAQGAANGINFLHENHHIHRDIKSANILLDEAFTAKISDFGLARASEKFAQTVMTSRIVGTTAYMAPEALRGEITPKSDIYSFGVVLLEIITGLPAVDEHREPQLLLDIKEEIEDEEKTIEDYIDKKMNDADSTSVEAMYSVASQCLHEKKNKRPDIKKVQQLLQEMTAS

CC(C)(O)[C@H](F)CNC(=O)c1cnc(-c2cnn3cc(Cl)cnc23)cc1NCCC(F)(F)F [Example 46, (R)-6-(6-chloropyrazolo[1,5-a]pyrimidin-3-yl)-N-(2-fluoro-3-hydroxy-3-methylbutyl)-4-((3,3,3-trifluoropropyl)amino) nicotinamide]
IC50 [1]: 5 nM | Caco-2 Permeability [2]: 24.1 ×10⁻⁶ cm/s | EC50 [3]: 1970 nM

CCCNc1cc(-c2cnn3cc(Cl)cnc23)ncc1C(=O)NC[C@@H](F)C(C)(C)O [Example 66, (R)-6-(6-chloropyrazolo[1,5-a]pyrimidin-3-yl)-N-(2-fluoro-3-hydroxy-3-methylbutyl)-4-(propylamino)nicotinamide]
IC50 [1]: 3 nM | Caco-2 Permeability [2]: 21.2 ×10⁻⁶ cm/s

CC(C)(O)[C@H](F)CNC(=O)c1cnc(-c2cnn3cc(Cl)cnc23)cc1NC1CCC(F)C1 (stereo partly drawn) [Example 84, 6-(6-chloropyrazolo[1,5-a]pyrimidin-3-yl)-N—((R)-2-fluoro-3-hydroxy-3-methylbutyl)-4-((3-fluorocyclopentyl)amino)nicotinamide]
IC50 [1]: 2 nM | Caco-2 Permeability [2]: 12 ×10⁻⁶ cm/s | EC50 [3]: 320 nM

CCCNc1cc(-c2cnn3cc(Cl)cnc23)ncc1C(=O)NC[C@@H](F)C(C)(C)O [Example 159, (R)-6-(6-chloropyrazolo[1,5-a]pyrimidin-3-yl)-N-(2-fluoro-3-hydroxy-3-methylbutyl)-4-(propylamino)nicotinamide]
Caco-2 Permeability [2]: 9.5 ×10⁻⁶ cm/s | EC50 ([3]; Homo sapiens): 1000 nM

CC1(Nc2cc(-c3cnc4cc(Cl)cnn34)ncc2C(=O)NC[C@H](F)C(C)(C)O)CC1 [Example 207, (S)-6-(7-chloroimidazo[1,2-b]pyridazin-3-yl)-N-(2-fluoro-3-hydroxy-3-methylbutyl)-4-((1-methylcyclopropyl)amino)nicotinamide]
Caco-2 Permeability [2]: 9.7 ×10⁻⁶ cm/s | EC50 [3]: 260 nM

CC(C)(O)[C@H](F)CNC(=O)c1cnc(-c2cnn3cc(C#N)cnc23)cc1Nc1cnn(CC(F)(F)F)c1 [Example 241, (R)-6-(6-cyanopyrazolo[1,5-a]pyrimidin-3-yl)-N-(2-fluoro-3-hydroxy-3-methylbutyl)-4-((1-(2,2,2-trifluoroethyl)-1H-pyrazol-4-yl)amino)nicotinamide]
IC50 [1]: 2 nM | Caco-2 Permeability [2]: <1.5 ×10⁻⁶ cm/s | EC50 [3]: 130 nM

CC(C)(F)[C@H](F)CNC(=O)c1cnc(-c2cnc3cc(Cl)cnn23)cc1Nc1cnn(CC(F)F)c1 [Example 263, (R)-6-(7-chloroimidazo[1,2-b]pyridazin-3-yl)-N-(2,3-difluoro-3-methylbutyl)-4-((1-(2,2-difluoroethyl)-1H-pyrazol-4-yl)amino)nicotinamide]
IC50 [1]: 2 nM | Papp at 2 h, 3 µM [4]: 21.3 ×10⁻⁶ cm/s | EC50 ([3]; Homo sapiens): 300 nM

CC(F)(F)Cn1cc(Nc2cc(-c3cnc4cc(C#N)cnn34)ncc2C(=O)NC[C@@H](F)C(C)(C)O)cn1 [Example 265, (R)-6-(7-cyanoimidazo[1,2-b]pyridazin-3-yl)-4-((1-(2,2-difluoropropyl)-1H-pyrazol-4-yl)amino)-N-(2-fluoro-3-hydroxy-3-methylbutyl)nicotinamide]
IC50 [1]: 2 nM | Papp at 2 h, 3 µM [4]: < 1.5 ×10⁻⁶ cm/s | EC50 ([3]; Homo sapiens): 440 nM

CCn1cc(Nc2cc(-c3cnc4cc(Cl)cnn34)ncc2C(=O)NC[C@@H](F)C(C)(C)O)cn1 [Example 266, (R)-6-(7-chloroimidazo[1,2-b]pyridazin-3-yl)-4-((1-ethyl-1H-pyrazol-4-yl)amino)-N-(2-fluoro-3-hydroxy-3-methylbutyl) nicotinamide]
IC50 [1]: 3 nM | Papp at 2 h, 3 µM [4]: 2.9 ×10⁻⁶ cm/s | EC50 ([3]; Homo sapiens): 570 nM

CCn1cc(Nc2cc(-c3cnc4cc(C#N)cnn34)ncc2C(=O)NC[C@@H](F)C(C)(C)O)cn1 [Example 267, (R)-6-(7-cyanoimidazo[1,2-b]pyridazin-3-yl)-4-((1-ethyl-1H-pyrazol-4-yl)amino)-N-(2-fluoro-3-hydroxy-3-methylbutyl)nicotinamide]
IC50 [1]: 2 nM | Papp at 2 h, 3 µM [4]: < 1.5 ×10⁻⁶ cm/s | EC50 ([3]; Homo sapiens): 130 nM

CC(C)(O)[C@H](F)CNC(=O)c1cnc(-c2cnc3cc(Cl)cnn23)cc1Nc1cnn(C(F)F)c1 [Example 270, (R)-6-(7-chloroimidazo[1,2-b]pyridazin-3-yl)-4-((1-(difluoromethyl)-1H-pyrazol-4-yl)amino)-N-(2-fluoro-3-hydroxy-3-methylbutyl) nicotinamide]
IC50 [1]: 3 nM | Papp at 2 h, 3 µM [4]: 7.8 ×10⁻⁶ cm/s | EC50 ([3]; Homo sapiens): 820 nM

CC(C)(O)[C@H](F)CNC(=O)c1cnc(-c2cnc3cc(Cl)cnn23)cc1Nc1cnn(C2CC(F)(F)C2)c1 [Example 277, (R)-6-(7-chloroimidazo[1,2-b]pyridazin-3-yl)-4-((1-(3,3-difluorocyclobutyl)-1H-pyrazol-4-yl)amino)-N-(2-fluoro-3-hydroxy-3-methylbutyl)nicotinamide]
IC50 [1]: 2 nM | Papp at 2 h, 3 µM [4]: 3.6 ×10⁻⁶ cm/s | EC50 ([3]; Homo sapiens): 490 nM

CCCn1cc(Nc2cc(-c3cnc4cc(C#N)cnn34)ncc2C(=O)NC[C@@H](F)C(C)(C)O)cn1 [Example 278, (R)-6-(7-cyanoimidazo[1,2-b]pyridazin-3-yl)-N-(2-fluoro-3-hydroxy-3-methylbutyl)-4-((1-propyl-1H-pyrazol-4-yl)amino)nicotinamide]
IC50 [1]: 1 nM | Papp at 2 h, 3 µM [4]: < 1.5 ×10⁻⁶ cm/s | EC50 ([3]; Homo sapiens): 360 nM

CC(C)(F)Cn1cc(Nc2cc(-c3cnc4cc(C#N)cnn34)ncc2C(=O)NC[C@@H](F)C(C)(C)O)cn1 [Example 279, (R)-6-(7-cyanoimidazo[1,2-b]pyridazin-3-yl)-4-((1-(2-fluoro-2-methylpropyl)-1H-pyrazol-4-yl)amino)-N-(2-fluoro-3-hydroxy-3-methylbutyl)nicotinamide]
IC50 [1]: 1 nM | Papp at 2 h, 3 µM [4]: < 1.5 ×10⁻⁶ cm/s | EC50 ([3]; Homo sapiens): 780 nM

CC(C)(O)[C@H](F)CNC(=O)c1cnc(-c2cnc3cc(C#N)cnn23)cc1Nc1cc2n(n1)CCN(CC(F)F)C2 [Example 280, (R)-6-(7-cyanoimidazo[1,2-b]pyridazin-3-yl)-4-((5-(2,2-difluoroethyl)-4,5,6,7-tetrahydropyrazolo[1,5-a]pyrazin-2-yl)amino)-N-(2-fluoro-3-hydroxy-3-methylbutyl)nicotinamide]
IC50 [1]: 6 nM | Papp at 2 h, 3 µM [4]: < 1.5 ×10⁻⁶ cm/s | EC50 ([3]; Homo sapiens): 330 nM

CC(C)(O)[C@H](F)CNC(=O)c1cnc(-c2cnc3cc(C#N)cnn23)cc1Nc1cnn(CCCF)c1 [Example 281, (R)-6-(7-cyanoimidazo[1,2-b]pyridazin-3-yl)-N-(2-fluoro-3-hydroxy-3-methylbutyl)-4-((1-(3-fluoropropyl)-1H-pyrazol-4-yl)amino)nicotinamide]
IC50 [1]: 2 nM | Papp at 2 h, 3 µM [4]: < 1.5 ×10⁻⁶ cm/s | EC50 ([3]; Homo sapiens): 290 nM

CC(C)(O)[C@H](F)CNC(=O)c1cnc(-c2cnc3cc(C#N)cnn23)cc1Nc1cnn(C2CC2)c1 [Example 284, (R)-6-(7-cyanoimidazo[1,2-b]pyridazin-3-yl)-4-((1-cyclopropyl-1H-pyrazol-4-yl)amino)-N-(2-fluoro-3-hydroxy-3-methylbutyl)nicotinamide]
IC50 [1]: 2 nM | Papp at 2 h, 3 µM [4]: < 1.5 ×10⁻⁶ cm/s | EC50 ([3]; Homo sapiens): 210 nM

CC(C)(O)[C@H]1CC[C@H](NC(=O)c2cnc(-c3cnc4cc(C#N)cnn34)cc2Nc2cnn(C3CC3)c2)CC1 [Example 286, 6-(7-cyanoimidazo[1,2-b]pyridazin-3-yl)-4-((1-cyclopropyl-1H-pyrazol-4-yl)amino)-N-((1r,4r)-4-(2-hydroxypropan-2-yl)cyclohexyl) nicotinamide]
IC50 [1]: 2 nM | Papp at 2 h, 3 µM [4]: 5.5 ×10⁻⁶ cm/s | EC50 ([3]; Homo sapiens): 180 nM

CC(C)n1cc(Nc2cc(-c3cnc4cc(C#N)cnn34)ncc2C(=O)NCCC(C)(C)O)cn1 [Example 287, 6-(7-cyanoimidazo[1,2-b]pyridazin-3-yl)-N-(3-hydroxy-3-methylbutyl)-4-((1-isopropyl-1H-pyrazol-4-yl)amino)nicotinamide]
IC50 [1]: 9 nM | Papp at 2 h, 3 µM [4]: 1.8 ×10⁻⁶ cm/s | EC50 ([3]; Homo sapiens): 450 nM
